This note sets out measurements from patent publication US20250073339A1, “CONJUGATES COMPRISING CLEAVABLE LINKERS” (priority 2023, published 2025).

Structures are written as SMILES. Numbered stars: 1 amine (or outer) side, 2 acyl side, 3 side chain; on linkers, the order of the positions; unused ones are H or OH. Square brackets hold non-standard residues; d marks the D form. Peptide text beside a SMILES is read from it. * marks the point of attachment. X1 = O=C(O)[C@H]1O[C@@H](Oc2ccc(COC(=O)[*:2])cc2N[*:1])[C@H](O)[C@@H](O)[C@@H]1O; CH3O(CH2CH2O)11CH2CH2CO = COCCOCCOCCOCCOCCOCCOCCOCCOCCOCCOCCOCCC(=O)*; Dolaproine = CO[C@@H]([C@@H]1CCCN1)[C@@H](C)C(=O)O; Hexanoyl(6-maleimido) = O=C1C=CC(=O)N1CCCCCC(=O)*; Propanoyl(3-maleimido) = O=C1C=CC(=O)N1CCC(=O)*; Dil = CC[C@H](C)[C@H](NC)[C@@H](CC(=O)O)OC; PABC = O=C(OCc1ccc(N[*:1])cc1)[*:2]; X2 = C[C@@H](N*)[C@@H](O)c1ccccc1; Cit = NC(=O)NCCC[C@H](N)C(=O)O; NMeV = CN[C@H](C(=O)O)C(C)C; βAla = NCCC(=O)O

What all share (type): biochemical
In experiment [1] the target is T1, Human neutrophil elastase (Homo sapiens, UniProt P08246).
T1 sequence (P08246 30-267): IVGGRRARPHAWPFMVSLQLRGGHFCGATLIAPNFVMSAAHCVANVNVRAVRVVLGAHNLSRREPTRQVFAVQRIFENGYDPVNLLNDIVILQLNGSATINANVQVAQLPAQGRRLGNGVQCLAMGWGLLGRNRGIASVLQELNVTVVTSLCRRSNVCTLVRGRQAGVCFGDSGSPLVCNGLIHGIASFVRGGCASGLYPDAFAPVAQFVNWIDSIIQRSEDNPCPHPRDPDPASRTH
The experiment can be described thus: Linker-Payload enzymatic cleavage with human neutrophil elastase. The conditions noted are these: 0.67 μM enzyme, 67 μM Linker-Payload, pH 7.4, 37° C., 24 hours. How it is done: 0.67 μM Human neutrophil elastase was added to 67 μM Linker-Payload (1:100) in Tris Buffered Saline, pH 7.4. The mixture was incubated at 37° C. for a duration of 24 hours with intermediate timepoints collected and diluted 1:1 with buffer containing acetonitrile, water and formic acid. The sample was measured by reverse-phase HPLC with data quantified against a standard curve.

Another experiment concerns the target T2, β-glucuronidase (Homo sapiens, UniProt P08236).
T2 sequence (P08236 23-651): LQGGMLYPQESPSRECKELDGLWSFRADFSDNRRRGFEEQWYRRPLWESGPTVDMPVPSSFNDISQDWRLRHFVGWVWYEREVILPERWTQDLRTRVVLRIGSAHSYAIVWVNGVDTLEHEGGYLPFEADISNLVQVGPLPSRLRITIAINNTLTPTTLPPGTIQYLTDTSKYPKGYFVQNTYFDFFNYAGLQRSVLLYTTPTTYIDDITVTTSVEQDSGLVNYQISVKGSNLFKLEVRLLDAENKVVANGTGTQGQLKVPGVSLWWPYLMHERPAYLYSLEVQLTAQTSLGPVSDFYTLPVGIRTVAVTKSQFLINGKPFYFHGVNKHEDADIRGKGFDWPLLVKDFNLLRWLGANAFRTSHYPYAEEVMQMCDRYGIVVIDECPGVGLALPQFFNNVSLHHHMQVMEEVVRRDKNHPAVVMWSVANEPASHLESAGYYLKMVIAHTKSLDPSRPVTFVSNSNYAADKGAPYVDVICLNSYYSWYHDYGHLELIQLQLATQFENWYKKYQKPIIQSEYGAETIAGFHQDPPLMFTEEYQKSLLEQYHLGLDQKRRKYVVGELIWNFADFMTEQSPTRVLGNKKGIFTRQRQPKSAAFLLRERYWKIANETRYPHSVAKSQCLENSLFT
The experiment can be described thus: Linker-Payload enzymatic cleavage with β-glucuronidase. The conditions noted are these: 4 nM enzyme, 40 μM Linker-Payload, pH 5.0, 37° C., 24 hours; for cleavage in the presence of β-glucuronidase: FIG. 1A. How it is done:
4 nM β-glucuronidase was added to 40 μM Linker-Payload (1:10,000) in 50 mM sodium acetate, pH 5.0. The mixture was incubated at 37° C. for a duration of 24 hours with intermediate timepoints collected and diluted 1:1 with buffer containing acetonitrile, water and formic acid. The sample was measured by reverse-phase HPLC with data quantified against a standard curve.

In a further experiment the target is Cathepsin B (Homo sapiens, UniProt P07858). The experiment can be described thus: Linker-Payload enzymatic cleavage with cathepsin B. The conditions noted are these: FIG. 1B; 0.14 μM enzyme, 70 μM Linker-Payload, pH 5.0, 37° C., 24 hours. How it is done: 0.14 μM Cathepsin B was added to 70 μM Linker-Payload (1:500) in 50 mM sodium acetate, 1 mM DTT, pH 5.0. The mixture was incubated at 37° C. for a duration of 24 hours with intermediate timepoints collected and diluted 1:1 with buffer containing acetonitrile, water and formic acid. The sample was measured by reverse-phase HPLC with data quantified against a standard curve.

`CC[C@H](C)[C@@H]([C@@H](CC(=O)N1CCC[C@H]1[C@H](OC)[C@@H](C)C(=O)N[C@H](C)[C@@H](O)c1ccccc1)OC)N(C)C(=O)[C@@H](NC(=O)[C@H](C(C)C)N(C)C(=O)OCc1ccc(NC(=O)[C@H](CCCNC(N)=O)NC(=O)[C@@H](NC(=O)CCCCCN2C(=O)C=CC2=O)C(C)C)cc1)C(C)C` [LP1, maleimidocaproyl-valine-citrulline-p-aminobenzoyloxycarbonyl-MMAE, reference compound] ({Hexanoyl(6-maleimido)}-V[Cit][PABC][NMeV]V[Dil][Dolaproine]-X2): the “cleavage in the presence of human neutrophil elastase” value in experiment [1] (FIG. 1C) was “underwent more rapid cleavage”.

For `CC[C@H](C)[C@@H]([C@@H](CC(=O)N1CCC[C@H]1[C@H](OC)[C@@H](C)C(=O)N[C@H](C)[C@@H](O)c1ccccc1)OC)N(C)C(=O)[C@@H](NC(=O)[C@H](C(C)C)N(C)C(=O)OCc1ccc(O[C@@H]2O[C@H](C(=O)O)[C@@H](O)[C@H](O)[C@H]2O)c(CNC(=O)CCNC(=O)COC2(CNC(=O)CCN3C(=O)C=CC3=O)CN(C(=O)CCOCCOCCOCCOCCOCCOCCOCCOCCOCCOCCOCCOC)C2)c1)C(C)C` [LP2], the “cleavage in the presence of β-glucuronidase” value at β-glucuronidase was “underwent significant cleavage”. In addition, the “cleavage in the presence of β-glucuronidase relative to references” value on β-glucuronidase (FIG. 1E) was “underwent slower cleavage than both LP7 (Reference) and LP8 (Reference)”. Also, the “cleavage in the presence of human neutrophil elastase” value in experiment [1] (FIG. 1C) and in experiment [1] (FIG. 1D) was “did not undergo rapid cleavage” throughout. Besides, the “cleavage in the presence of cathepsin B” value on Cathepsin B was “neither LP2 nor LP3 underwent rapid cleavage”.

As for `CC[C@H](C)[C@@H]([C@@H](CC(=O)N1CCC[C@H]1[C@H](OC)[C@@H](C)C(=O)N[C@H](C)[C@@H](O)c1ccccc1)OC)N(C)C(=O)[C@@H](NC(=O)[C@H](C(C)C)N(C)C(=O)OCc1ccc(O[C@@H]2O[C@H](C(=O)O)[C@@H](O)[C@H](O)[C@H]2O)c(CNC(=O)COC2(CNC(=O)CCN3C(=O)C=CC3=O)CN(C(=O)CCOCCOCCOCCOCCOCCOCCOCCOCCOCCOCCOCCOC)C2)c1)C(C)C` [LP3], the “cleavage in the presence of β-glucuronidase” value on β-glucuronidase is reported as “underwent significant cleavage”. Besides, the “cleavage in the presence of human neutrophil elastase” value in experiment [1] (FIG. 1C) was “did not undergo rapid cleavage”. Further, the “cleavage in the presence of cathepsin B” value on Cathepsin B is given as “neither LP2 nor LP3 underwent rapid cleavage”.

Take `CC[C@H](C)[C@@H]([C@@H](CC(=O)N1CCC[C@H]1[C@H](OC)[C@@H](C)C(=O)N[C@H](C)[C@@H](O)c1ccccc1)OC)N(C)C(=O)[C@@H](NC(=O)[C@H](C(C)C)N(C)C(=O)OCc1ccc(O[C@@H]2O[C@H](C(=O)O)[C@@H](O)[C@H](O)[C@H]2O)c(CNC(=O)CCNC(=O)[C@H](CCCCNC(=O)CCOCCOCCOCCOCCOCCOCCOCCOCCOCCOCCOCCOC)NC(=O)CCN2C(=O)C=CC2=O)c1)C(C)C` [LP7, reference compound]: in experiment [1] (FIG. 1D), the “cleavage in the presence of human neutrophil elastase” value is listed as “did not undergo rapid cleavage”.

In the case of `CC[C@H](C)[C@@H]([C@@H](CC(=O)N1CCC[C@H]1[C@H](OC)[C@@H](C)C(=O)N[C@H](C)[C@@H](O)c1ccccc1)OC)N(C)C(=O)[C@@H](NC(=O)[C@H](C(C)C)N(C)C(=O)OCc1ccc(O[C@@H]2O[C@H](C(=O)O)[C@@H](O)[C@H](O)[C@H]2O)c(NC(=O)CCNC(=O)[C@H](CCCCNC(=O)CCOCCOCCOCCOCCOCCOCCOCCOCCOCCOCCOCCOC)NC(=O)CCN2C(=O)C=CC2=O)c1)C(C)C` [LP8, reference compound] ({Propanoyl(3-maleimido)}-K(CH3O(CH2CH2O)11CH2CH2CO)[βAla][X1][NMeV]V[Dil][Dolaproine]-X2), the “cleavage in the presence of human neutrophil elastase” value in experiment [1] (FIG. 1D) was “did not undergo rapid cleavage”.
